The text below walks through data of ChEMBL document CHEMBL1142557, “Novel bioactive sulfated alkene and alkanes from the mediterranean ascidian Halocynthia papillosa” (J Nat Prod, 2000).

≈ marks a conversion by molar mass, not a printed value. Calls of active or inactive are those of the source. The rule behind the calls is not given here.

In assay [1] the test system is C6. The experiment in a line: Cytotoxicity against rat C6 cells assessed as cell viability after 96 hrs by MTT assay. The format is functional, cell-based. Particulars: for IC50: C6, 96 h. On the technique in general: Tetrazolium assays rely on reduction of a dye to a coloured formazan, in cell work by metabolically active cells.
Assay [2] relates to WEHI-164. The experiment in a line: Cytotoxicity against mouse WEHI164 cells assessed as cell viability after 96 hrs by MTT assay. As to conditions: WEHI-164, 96 h. The format is functional, cell-based.

In general, IC50 refers to the concentration at which inhibition is half-maximal. For `CC(C)CCCCCOS(=O)(=O)O`, the IC50 in assay [1] is 545 µg/mL (≈ 2590 µM); in assay [2], 15 µg/mL (≈ 71.3 µM).
In the case of `CC(C)CCC[C@@H](C)COS(=O)(=O)O`, the outcome in assay [1] was inactive. Besides, the IC50 in assay [2] worked out at 20.9 µg/mL (≈ 93.2 µM).
Consider `Sc1ncnc2nc[nH]c12` [MERCAPTOPURINE ANHYDROUS], for which the IC50 in assay [1] came to 30.2 µg/mL (≈ 198 µM); in assay [2] it was 1.3 µg/mL (≈ 8.54 µM).
Taken in the same sequence, the figures for `CCC=CCCCCOS(=O)(=O)O` were 515 µg/mL (≈ 2470 µM) and 12.2 µg/mL (≈ 58.6 µM).
